According to the supplement of paper PMC10307832:

Tests used:
Test in all cases: relative viability (nuclei count vs DMSO), 5 days (fraction); higher = more cells survive
SK-MES-1 = tested on: SK-MES-1
Outline: (§1)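 The day after seeding in 1536-well plates, lung cancer cell lines were treated by pin tool with a single drug, or with a fixed anchor-drug dose together with five library-drug doses (not always all listed) in √10 steps. After 5 days, a combined fix-and-stain solution (final 0.05% Triton X-100, 1% formaldehyde, 1 ug/ml Hoechst) was added. Nuclei counted on 4× images gave relative viability as treated counts over vehicle counts, reported as the median of duplicate plates.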

PC-14 = tested on: PC-14
Outline: as §1

NCI-H460 = tested on: NCI-H460
Outline: as §1

NCI-H322M = tested on: NCI-H322M
Outline: as §1

NCI-H1915 = tested on: NCI-H1915
Outline: as §1

NCI-H1563 = tested on: NCI-H1563
Outline: as §1

NCI-H1651 = tested on: NCI-H1651
Outline: as §1

NCI-H661 = tested on: NCI-H661
Outline: as §1

NCI-H3122 = tested on: NCI-H3122
Outline: as §1

RERF-LC-KJ = tested on: RERF-LC-KJ
Outline: as §1

NCI-H727 = tested on: NCI-H727
Outline: as §1

NCI-H2347 = tested on: NCI-H2347
Outline: as §1

NCI-H596 = tested on: NCI-H596
Outline: as §1

LXF-289 = tested on: LXF-289
Outline: as §1

NCI-H1355 = tested on: NCI-H1355
Outline: as §1

NCI-H1792 = tested on: NCI-H1792
Outline: as §1

NCI-H1755 = tested on: NCI-H1755
Outline: as §1

NCI-H441 = tested on: NCI-H441
Outline: as §1

LCLC-103H = tested on: LCLC-103H
Outline: as §1

NCI-H520 = tested on: NCI-H520
Outline: as §1

O=c1cc(N2CCOCC2)oc2c(-c3cccc4c3sc3ccccc34)cccc12 + CS(=O)(=O)N1CCN(Cc2cc3nc(-c4cccc5[nH]ncc45)nc(N4CCOCC4)c3s2)CC1 [Pictilisib] (partner 1 µM)
relative viability (SK-MES-1; first compound 0.01 µM): 0.327 | relative viability (SK-MES-1; first compound 0.03162 µM): 0.314 | relative viability (SK-MES-1; first compound 0.1 µM): 0.396 | relative viability (SK-MES-1; first compound 0.3162 µM): 0.31 | relative viability (SK-MES-1; first compound 1 µM): 0.362 | relative viability (PC-14; first compound 0.01 µM): 0.555 | relative viability (PC-14; first compound 0.03162 µM): 0.612 | relative viability (PC-14; first compound 0.1 µM): 0.553 | relative viability (PC-14; first compound 0.3162 µM): 0.638 | relative viability (PC-14; first compound 1 µM): 0.589 | relative viability (NCI-H460; first compound 0.01 µM): 0.403 | relative viability (NCI-H460; first compound 0.03162 µM): 0.342 | relative viability (NCI-H460; first compound 0.1 µM): 0.394 | relative viability (NCI-H460; first compound 0.3162 µM): 0.384 | relative viability (NCI-H460; first compound 1 µM): 0.319 | relative viability (NCI-H322M; first compound 0.01 µM): 0.578 | relative viability (NCI-H322M; first compound 0.03162 µM): 0.525 | relative viability (NCI-H322M; first compound 0.3162 µM): 0.471 | relative viability (NCI-H322M; first compound 1 µM): 0.507 | relative viability (NCI-H1915; first compound 0.01 µM): 0.953 | relative viability (NCI-H1915; first compound 0.03162 µM): 0.975 | relative viability (NCI-H1915; first compound 0.1 µM): 1.08 | relative viability (NCI-H1915; first compound 0.3162 µM): 0.99 | relative viability (NCI-H1915; first compound 1 µM): 0.909 | relative viability (NCI-H1563; first compound 0.01 µM): 0.626 | relative viability (NCI-H1563; first compound 0.03162 µM): 0.634 | relative viability (NCI-H1563; first compound 0.1 µM): 0.659 | relative viability (NCI-H1563; first compound 0.3162 µM): 0.57 | relative viability (NCI-H1563; first compound 1 µM): 0.559 | relative viability (NCI-H1651; first compound 0.01 µM): 0.451 | relative viability (NCI-H1651; first compound 0.03162 µM): 0.642 | relative viability (NCI-H1651; first compound 0.1 µM): 0.636 | relative viability (NCI-H1651; first compound 0.3162 µM): 0.615 | relative viability (NCI-H1651; first compound 1 µM): 0.56 | relative viability (NCI-H661; first compound 0.01 µM): 0.362 | relative viability (NCI-H661; first compound 0.03162 µM): 0.352 | relative viability (NCI-H661; first compound 0.1 µM): 0.376 | relative viability (NCI-H661; first compound 0.3162 µM): 0.409 | relative viability (NCI-H661; first compound 1 µM): 0.331 | relative viability (NCI-H3122; first compound 0.01 µM): 0.623 | relative viability (NCI-H3122; first compound 0.03162 µM): 0.553 | relative viability (NCI-H3122; first compound 0.1 µM): 0.651 | relative viability (NCI-H3122; first compound 0.3162 µM): 0.552 | relative viability (NCI-H3122; first compound 1 µM): 0.57 | relative viability (RERF-LC-KJ; first compound 0.01 µM): 0.509 | relative viability (RERF-LC-KJ; first compound 0.03162 µM): 0.507 | relative viability (RERF-LC-KJ; first compound 0.1 µM): 0.595 | relative viability (RERF-LC-KJ; first compound 0.3162 µM): 0.664 | relative viability (RERF-LC-KJ; first compound 1 µM): 0.514 | relative viability (NCI-H727; first compound 0.01 µM): 0.587 | relative viability (NCI-H727; first compound 0.03162 µM): 0.355 | relative viability (NCI-H727; first compound 0.1 µM): 0.467 | relative viability (NCI-H727; first compound 0.3162 µM): 0.39 | relative viability (NCI-H727; first compound 1 µM): 0.266 | relative viability (NCI-H2347; first compound 0.01 µM): 0.671 | relative viability (NCI-H2347; first compound 0.03162 µM): 0.442 | relative viability (NCI-H2347; first compound 0.1 µM): 0.502 | relative viability (NCI-H2347; first compound 0.3162 µM): 0.802 | relative viability (NCI-H2347; first compound 1 µM): 0.468 | relative viability (NCI-H596; first compound 0.01 µM): 0.442 | relative viability (NCI-H596; first compound 0.03162 µM): 0.39 | relative viability (NCI-H596; first compound 0.1 µM): 0.38 | relative viability (NCI-H596; first compound 0.3162 µM): 0.395 | relative viability (NCI-H596; first compound 1 µM): 0.38 | relative viability (LXF-289; first compound 0.01 µM): 0.877 | relative viability (LXF-289; first compound 0.03162 µM): 0.815 | relative viability (LXF-289; first compound 0.1 µM): 0.881 | relative viability (LXF-289; first compound 0.3162 µM): 0.754 | relative viability (LXF-289; first compound 1 µM): 0.843 | relative viability (NCI-H1355; first compound 0.01 µM): 0.486 | relative viability (NCI-H1355; first compound 0.03162 µM): 0.502 | relative viability (NCI-H1355; first compound 0.3162 µM): 0.429 | relative viability (NCI-H1355; first compound 1 µM): 0.419 | relative viability (NCI-H1792; first compound 0.01 µM): 0.286 | relative viability (NCI-H1792; first compound 0.03162 µM): 0.264 | relative viability (NCI-H1792; first compound 0.1 µM): 0.244 | relative viability (NCI-H1792; first compound 0.3162 µM): 0.274 | relative viability (NCI-H1792; first compound 1 µM): 0.252 | relative viability (NCI-H1755; first compound 0.01 µM): 0.288 | relative viability (NCI-H1755; first compound 0.03162 µM): 0.402 | relative viability (NCI-H1755; first compound 0.1 µM): 0.457 | relative viability (NCI-H1755; first compound 0.3162 µM): 0.458 | relative viability (NCI-H1755; first compound 1 µM): 0.395 | relative viability (NCI-H441; first compound 0.01 µM): 0.561 | relative viability (NCI-H441; first compound 0.03162 µM): 0.483 | relative viability (NCI-H441; first compound 0.1 µM): 0.487 | relative viability (NCI-H441; first compound 0.3162 µM): 0.438 | relative viability (NCI-H441; first compound 1 µM): 0.579 | relative viability (LCLC-103H; first compound 0.01 µM): 0.64 | relative viability (LCLC-103H; first compound 0.03162 µM): 0.664 | relative viability (LCLC-103H; first compound 0.1 µM): 0.649 | relative viability (LCLC-103H; first compound 0.3162 µM): 0.627 | relative viability (LCLC-103H; first compound 1 µM): 0.577 | relative viability (NCI-H520; first compound 0.01 µM): 0.304 | relative viability (NCI-H520; first compound 0.03162 µM): 0.321 | relative viability (NCI-H520; first compound 0.1 µM): 0.282 | relative viability (NCI-H520; first compound 0.3162 µM): 0.305 | relative viability (NCI-H520; first compound 1 µM): 0.312
